From US20240246815A1, “CHLORINE PEROXIDE RADICAL, AND PRODUCTION METHOD, COMPOSITION, QUANTIFICATION METHOD AND USE THEREOF” (SANKEI CO., LTD., priority 2021, published 2024)

Test: Longevity of ESR signals in aqueous solution obtained by adding an acid to sodium chlorite
Type: physicochemical
Settings: relatively low concentration of HCl (0.1 M sodium chlorite with 0.08 M HCl 1:1), stored in a dark location
Procedure: An aqueous solution obtained by adding an acid to sodium chlorite was prepared by mixing 0.1 M sodium chlorite with 2.5 M hydrochloric acid to achieve a desired concentration by using ion exchange water. The concentration of sodium chlorite was measured by standard iodometry.
An aqueous solution obtained by adding an acid to sodium chlorite was placed in a glass capillary tube with a length of 100 mm and inner diameter of 2 mm. The glass capillary was transferred to a capillary cell attached to an ESR cavity, and ESR measurement was taken by using an X band spectrometer (JEOL FA-100ESR) operated at 9.43 GHz at room temperature. The magnetic field was modulated at 100 KHz. […] The signal intensity was normalized with respect to an MnO marker, and the concentration of stable radical products was determined based on signal height by using an external standard TEMPOL. Radical species found in an aqueous solution obtained by adding an acid to sodium chlorite was quantified by using an integrated software for determining a spectral region mounted onto an ESR device.
Free radicals in an aqueous solution obtained by adding an acid to sodium chlorite were measured by using ESR measurement. […] The solution was measured 4 minutes later by ESR spectroscopy. […]

For chlorine peroxide radical, the “ESR signals remained stable” value was “one”.
